From patent publication US20120178765A1, “NOVEL GLUCOKINASE ACTIVATORS AND PROCESSES FOR THE PREPARATION THEREOF” (YUHAN CORPORATION, priority 2009, published 2012)
Where a name gives a salt, the structure may show the parent alone.

Biological target: T1, Glucokinase (Homo sapiens, UniProt P35557)
T1 construct: purchased ProteinOne Inc
T1 sequence (P35557 1-465): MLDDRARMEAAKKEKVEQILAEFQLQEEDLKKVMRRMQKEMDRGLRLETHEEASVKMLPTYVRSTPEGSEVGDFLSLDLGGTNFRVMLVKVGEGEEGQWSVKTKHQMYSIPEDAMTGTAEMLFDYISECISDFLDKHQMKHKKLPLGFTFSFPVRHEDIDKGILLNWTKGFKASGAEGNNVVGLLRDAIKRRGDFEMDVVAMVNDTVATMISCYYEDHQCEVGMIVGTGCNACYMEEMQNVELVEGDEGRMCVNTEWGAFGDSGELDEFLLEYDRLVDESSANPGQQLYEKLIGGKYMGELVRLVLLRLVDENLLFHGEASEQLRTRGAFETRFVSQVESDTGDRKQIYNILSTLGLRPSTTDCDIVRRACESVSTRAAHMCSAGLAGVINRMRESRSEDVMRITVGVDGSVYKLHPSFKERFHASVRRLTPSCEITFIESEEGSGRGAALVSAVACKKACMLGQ
Experiment: Glucokinase activation assay (NADPH absorbance at 340 nm)
Format: biochemical
Conditions: glucokinase (ProteinOne Inc.), 5 mM D(+)-glucose, 24° C., 90 minutes
Summary of the method: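 Glucokinase (100 ng/uL) coupled to G6PDH in 25 mM HEPES pH 7 with 5 mM D(+)-glucose, 1 mM ATP, 1 mM NADP; compounds added.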

Row | Molecule | EC50 [nM]
1 | CC(C)COc1cc(/C=C/c2c(F)cccc2F)cc(C(=O)Nc2nccs2)c1 [Example 72, 3-[trans-2-(2,6-difluorophenyl)vinyl]-5-isobutoxy-N-(thiazol-2-yl)-benzamide] | 121
2 | 3-{2-[3-(4-nitrobenzoylamino)phenyl]ethyl}-5-(2-methoxy-(1S)-methyl-ethoxy)-N-(thiazol-2-yl)-benzamide [Example 127] | 266
3 | 3-[2-(4-butyrylaminophenyl)ethyl]-5-(2-methoxy-(1S)-methyl-ethoxy)-N-(thiazol-2-yl)-benzamide [Example 133] | 322
4 | 3-[trans-2-(4-fluorophenyl)vinyl]-5-(2-methoxy-(1S)-methyl-ethoxy)-N-(1-methyl-1H-pyrazol-3-yl)-benzamide [Example 39] | 119
5 | COC[C@H](C)Oc1cc(/C=C/c2cccc([N+](=O)[O-])c2)cc(C(=O)Nc2ccc(C(=O)O)cn2)c1 [Example 75, 3-[trans-2-(3-nitrophenyl)vinyl]-5-(2-methoxy-(1S)-methyl-ethoxy)-N-(nicotinic acid-6-yl)-benzamide] | 165
6 | 3-[2-(3-acetylaminophenyl)ethyl]-5-(2-methoxy-(1S)-methyl-ethoxy)-N-(thiazol-2-yl)-benzamide [Example 118] | 208
7 | COC[C@H](C)Oc1cc(/C=C/c2ccc(F)cc2F)cc(C(=O)Nc2ccc(C(=O)OC)cn2)c1 [Example 67, 3-[trans-2-(2,4-difluorophenyl)vinyl]-5-(2-methoxy-(1S)-methyl-ethoxy)-N-(nicotinic acid-3-methyl ester-6-yl)-benzamide] | 231
8 | 3-[2-(2,3-dimethoxyphenyl)ethyl]-5-(2-methoxy-(1S)-methyl-ethoxy)-N-(thiazol-2-yl)-benzamide [Example 90] | 322
9 | 3-[trans-2-(4-nitrophenyl)vinyl]-5-(2-methoxy-(1S)-methyl-ethoxy)-N-(5-fluorothiazol-2-yl)-benzamide [Example 21] | 336
10 | 3-[trans-2-(3-bromophenyl)vinyl]-5-(2-methoxy-(1S)-methyl-ethoxy)-N-(pyrazin-2-yl)-benzamide [Example 59] | 377
11 | COC[C@H](C)Oc1cc(/C=C/c2ccccc2OC)cc(C(=O)Nc2ccc(C(=O)OC)cn2)c1 [Example 61, 3-[trans-2-(2-methoxyphenyl)vinyl]-5-(2-methoxy-(1S)-methyl-ethoxy)-N-(nicotinic acid-3-methyl ester-6-yl)-benzamide] | 276
12 | 3-{2-[4-(phenylacetylamino)phenyl]ethyl}-5-(2-methoxy-(1S)-methyl-ethoxy)-N-(thiazol-2-yl)-benzamide [Example 137] | 270
13 | 3-[2-(2-acetylaminophenyl)ethyl]-5-(2-methoxy-(1S)-methyl-ethoxy)-N-(thiazol-2-yl)benzamide [Example 116] | 318
14 | 3-[2-(2-chlorophenyl)ethyl]-5-(2-methoxy-(1S)-methyl-ethoxy)-N-(1-methyl-1H-pyrazol-3-yl)-benzamide [Example 101] | 85.6
15 | 3-[trans-2-(2,3-difluorophenyl)vinyl]-5-(2-methoxy-(1S)-methyl-ethoxy)-N-(1-methyl-1H-pyrazol-3-yl)-benzamide [Example 34] | 132
16 | 3-[trans-2-(3,5-dimethoxyphenyl)vinyl]-5-(2-methoxy-(1S)-methyl-ethoxy)-N-(pyrazin-2-yl)-benzamide [Example 50] | 311
17 | COC[C@H](C)Oc1cc(CCc2cccc(N)c2)cc(C(=O)Nc2ccn(C)n2)c1 [Example 97, 3-[2-(3-aminophenyl)ethyl]-5-(2-methoxy-(1S)-methyl-ethoxy)-N-(1-methyl-1-pyrazol-3-yl)-benzamide] | 415
18 | 3-[2-(4-fluorophenyl)ethyl]-5-(2-methoxy-(1S)-methyl-ethoxy)-N-(1-methyl-1H-pyrazol-3-yl)-benzamide [Example 98] | 216
19 | 3-{2-[3-(3-phenyl-ureido)phenyl]ethyl}-5-(2-methoxy-(1S)-methyl-ethoxy)-N-(thiazol-2-yl)-benzamide [Example 130] | 227
20 | 3-[2-(4-benzenesulfonylaminophenyl)ethyl]-5-(2-methoxy-(1S)-methyl-ethoxy)-N-(thiazol-2-yl)-benzamide [Example 144] | 411

Row | Molecule | EC50 [nM]
21 | 3-[2-(2,6-difluorophenyl)ethyl]-5-(2-methoxy-(1S)-methyl-ethoxy)-N-(thiazol-2-yl)-benzamide [Example 87] | 34.4
22 | 3-[trans-2-(2,4-difluorophenyl)vinyl]-5-(2-methoxy-(1S)-methyl-ethoxy)-N-(thiazol-2-yl)-benzamide [Example 10] | 55.2
23 | CC(C)COc1cc(/C=C/c2ccccc2[N+](=O)[O-])cc(C(=O)Nc2nccs2)c1 [Example 3, 3-[trans-2-(2-nitrophenyl)vinyl]-5-isobutoxy-N-(thiazol-2-yl)-benzamide] | 90.2
24 | 3-[trans-2-(2,5-difluorophenyl)vinyl]-5-(2-methoxy-(1S)-methyl-ethoxy)-N-(thiazol-2-yl)-benzamide [Example 11] | 30.9
25 | COC[C@H](C)Oc1cc(/C=C/c2ccccc2[N+](=O)[O-])cc(C(=O)Nc2ccc(C(=O)OC)cn2)c1 [Example 62, 3-[trans-2-(2-nitrophenyl)vinyl]-5-(2-methoxy-(1S)-methyl-ethoxy)-N-(nicotinic acid-3-methyl ester-6-yl)-benzamide] | 106
26 | 3-[2-(2,4-dimethoxyphenyl)ethyl]-5-(2-methoxy-(1S)-methyl-ethoxy)-N-(1-methyl-1H-pyrazol-3-yl)-benzamide [Example 104] | 223
27 | 3-[trans-2-(4-nitrophenyl)vinyl]-5-(2-methoxy-(1S)-methyl-ethoxy)-N-(thiazol-2-yl)-benzamide [Example 15] | 127
28 | 3-[trans-2-(2,3-dimethoxyphenyl)vinyl]-5-(2-methoxy-(1S)-methyl-ethoxy)-N-(5-fluorothiazol-2-yl)-benzamide [Example 28] | 118
29 | 3-[trans-2-(2,3,5-trifluorophenyl)vinyl]-5-(2-methoxy-(1S)-methyl-ethoxy)-N-(thiazol-2-yl)-benzamide [Example 18] | 126
30 | 3-[2-(2-methoxyphenyl)ethyl]-5-(2-methoxy-(1S)-methyl-ethoxy)-N-(pyrazin-2-yl)-benzamide [Example 106] | 304
31 | 3-{2-[4-(3-ethyl-thio-ureido)phenyl]ethyl}-5-(2-methoxy-(1S)-methyl-ethoxy)-N-(thiazol-2-yl)-benzamide [Example 146] | 454
32 | 3-[trans-2-(2,3-difluorophenyl)vinyl]-5-(2-methoxy-(1S)-methyl-ethoxy)-N-(thiazol-2-yl)-benzamide [Example 9] | 27.5
33 | COC[C@H](C)Oc1cc(CCc2ccc(N)cc2)cc(C(=O)Nc2nccs2)c1 [Example 112, 3-[2-(4-aminophenyl)ethyl]-5-(2-methoxy-(1S)-methyl-ethoxy)-N-(thiazol-2-yl)-benzamide hydrochloride] | 126
34 | 3-[trans-2-(2-methoxyphenyl)vinyl]-5-(2-methoxy-(1S)-methyl-ethoxy)-N-(1-methyl-1H-pyrazol-3-yl)-benzamide [Example 83] | 115
35 | COC[C@H](C)Oc1cc(CCc2ccccc2N)cc(C(=O)Nc2nccs2)c1 [Example 110, 3-[2-(2-aminophenyl)ethyl]-5-(2-methoxy-(1S)-methyl-ethoxy)-N-(thiazol-2-yl)-benzamide hydrochloride] | 68.2
36 | COC[C@H](C)Oc1cc(CCc2ccccc2OC)cc(C(=O)Nc2ccn(C)n2)c1 [Example 93, 3-[2-(2-methoxyphenyl)ethyl]-5-(2-methoxy-(1S)-methyl-ethoxy)-N-(1-methyl-1-pyrazol-3-yl)-benzamide] | 135
37 | 3-{2-[4-(3-methyl-butyrylamino)phenyl]ethyl}-5-(2-methoxy-(1S)-methyl-ethoxy)-N-(thiazol-2-yl)-benzamide [Example 134] | 355
38 | 3-[trans-2-(3-nitrophenyl)vinyl]-5-(2-methoxy-(1S)-methyl-ethoxy)-N-(5-fluorothiazol-2-yl)-benzamide [Example 20] | 123
39 | CC(C)Oc1cc(/C=C/c2ccccn2)cc(C(=O)Nc2ccc(C(=O)O)cn2)c1 [Comparative Example 1, reference compound] | 2450
40 | 3-[trans-2-(2-fluorophenyl)vinyl]-5-(2-methoxy-(1S)-methyl-ethoxy)-N-(1-methyl-1H-pyrazol-3-yl)-benzamide [Example 33] | 79.8
